# Like-named read-outs stand apart in the source and are kept apart here. Marks after values point to notes of the source that are not given here.
# Tests used:
# [1] = system: isolated rat liver mitochondria; settings: positive control alamethicin treated samples
# RCC III = RCC III activity in submitochondrial particles; type: biochemical, rat; set-up: key to RCC III at 100XCmax: activity relative to DMSO-treated controls (control set as 1 = 100%); settings: 100XCmax
# Summary of the method: (§1)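 First, submitochondrial particles (1 mg/ml) are incubated with inhibitor for 15 min. Next, complex activities are followed spectrophotometrically, with RCC I taken as the difference between buffers lacking and containing rotenone. Finally, activities are expressed relative to DMSO controls set at 1.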
# [2] = system: isolated rat liver mitochondria; experiment: Mitochondrial ROS production (CM-H2DCFDA)
# [3] = cited from earlier work
# [4] = system: isolated rat liver mitochondria; experiment: Mitochondrial oxygen consumption (glutamate/malate or succinate driven, state 4 and state 3); type: biochemical; settings: for Glutamate/malate driven respiration State 3 / Glutamate/malate driven respiration State 4 / Succinate-driven respiration State 3 / Succinate-driven respiration State 4: oxygen consumption, DMSO-treated = 1; for State 3 respiration driven by succinate at 10XCmax: key: 0 indicates that the drug had no effects (negative); for State 3 respiration driven by succinate at 1XCmax: key: 0 indicates that the drug had no effects (negative)
# Summary of the method: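 Rat liver mitochondria (1 mg/ml protein) exposed 5 min to kinase inhibitors in 0.1% DMSO, then O2 consumption measured by Clark-type electrode with glutamate/malate or succinate (state 4), ADP added after 3 min (state 3). Rates normalized to 0.1% DMSO controls set to 1.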
# [5] = system: isolated rat liver mitochondria; experiment: Mitochondrial swelling (absorbance at 535 nm); type: biochemical; for Swelling 5XCmax: key: 0 indicates that the drug had no effects (negative)
# RCC IV = RCC IV activity in submitochondrial particles; type: biochemical, rat; set-up: key to RCC IV at 50XCmax / RCC IV at 100XCmax: activity relative to DMSO-treated controls (control set as 1 = 100%); settings: 50XCmax; DMSO treated samples set as 1; in %
# Summary of the method: as §1
# [6] = system: isolated rat liver mitochondria; experiment: Mitochondrial inner membrane potential (MMP), Rhodamine 123; type: biochemical
# Text: Fig. 3 KI effects on mitochondrial inner membrane potential (MMP). […] In a, c, data are means and standard derivations from three separate experiments. *p < 0.05 as compared to DMSO-treated samples at the end of experiments. In b, data are means of two independent experiments
# [7] = cited from earlier work; remark: listed apart in the source
# [8] = 1XCmax, DMSO treated samples set as 1
# [9] = 2.5XCmax, DMSO treated samples set as 1
# [10] = 5XCmax, DMSO treated samples set as 1
# [11] = 10XCmax, DMSO treated samples set as 1
# [12] = 20XCmax, DMSO treated samples set as 1
# [13] = 30XCmax, DMSO treated samples set as 1
# [14] = 50XCmax, DMSO treated samples set as 1
# [15] = 100XCmax, DMSO treated samples set as 1
# [16] = 1XCmax, difference in signal between KI and DMSO treated samples at the end of experiments
# [17] = 2.5XCmax, difference in signal between KI and DMSO treated samples at the end of experiments
# [18] = 5XCmax, difference in signal between KI and DMSO treated samples at the end of experiments
# [19] = 10XCmax, difference in signal between KI and DMSO treated samples at the end of experiments
# [20] = 20XCmax, difference in signal between KI and DMSO treated samples at the end of experiments
# [21] = 30XCmax, difference in signal between KI and DMSO treated samples at the end of experiments
# [22] = 50XCmax, difference in signal between KI and DMSO treated samples at the end of experiments
# [23] = 100XCmax, difference in signal between KI and DMSO treated samples at the end of experiments
compound,measurement,setting,value
CC(C)(C)c1nc(-c2cccc(NS(=O)(=O)c3c(F)cccc3F)c2F)c(-c2ccnc(N)n2)s1 [Dabrafenib],Cytochrome c release 1XCmax,[1]; 1XCmax,0
same,Cytochrome c release 2.5XCmax,[1]; 2.5XCmax,0
same,Cytochrome c release 5XCmax,[1]; 5XCmax,19.44±2.10 percentage of the positive control group
same,Cytochrome c release 10XCmax,[1]; 10XCmax,15.99±0.85 percentage of the positive control group
same,Cytochrome c release 20XCmax,[1]; 20XCmax,17.52±7.37 percentage of the positive control group
same,Cytochrome c release 30XCmax,[1]; 30XCmax,17.54±2.16 percentage of the positive control group
same,Cytochrome c release 50XCmax,[1]; 50XCmax,21.81±7.02 percentage of the positive control group
same,Cytochrome c release 100XCmax,[1]; 100XCmax,15.21±0.35 percentage of the positive control group
same,RCC III at 100XCmax,RCC III,0
same,lowest concentration triggering ROS overproduction,[2],50 fold Cmax
same,ROS measured by CM-H2DCFDA at 1XCmax,[2]; [8],0
same,ROS measured by CM-H2DCFDA at 2.5XCmax,[2]; [9],0
same,ROS measured by CM-H2DCFDA at 5XCmax,[2]; [10],0
same,ROS measured by CM-H2DCFDA at 10XCmax,[2]; [11],0
same,ROS measured by CM-H2DCFDA at 20XCmax,[2]; [12],0
same,ROS measured by CM-H2DCFDA at 30XCmax,[2]; [13],0
same,ROS measured by CM-H2DCFDA at 50XCmax,[2]; [14],2.23±0.44
same,ROS measured by CM-H2DCFDA at 100XCmax,[2]; [15],1.80±0.16
same,effect on ROS production,[2]; highest tested concentrations,significantly ROS production
same,Cmax,"[3]; human therapeutic Cmax at FDA recommended dosages, ref product labeling and drug approval packages at the official FDA website",2.84 µM
same,Cmax (ng or µg/ml),"[3]; human therapeutic maximal blood concentration, ref product labeling","1,478 ng/ml"
same,Cmax,"[3]; read-out: Cmax at µM, human therapeutic maximal blood concentration, ref product labeling",2.84 µM
same,State 3 respiration driven by glutamate/malate at 1XCmax,[4]; [8],0
same,State 3 respiration driven by succinate at 1XCmax,[4]; [8],0
same,State 4 respiration driven by glutamate/malate at 1XCmax,[4]; [8],0
same,State 4 respiration driven by succinate at 1XCmax,[4]; [8],0
same,State 3 respiration driven by glutamate/malate at 2.5XCmax,[4]; [9],0
same,State 3 respiration driven by succinate at 2.5XCmax,[4]; [9],0
same,State 4 respiration driven by glutamate/malate at 2.5XCmax,[4]; [9],0
same,State 4 respiration driven by succinate at 2.5XCmax,[4]; [9],0
same,State 3 respiration driven by glutamate/malate at 5XCmax,[4]; [10],0
same,State 3 respiration driven by succinate at 5XCmax,[4]; [10],0
same,State 4 respiration driven by glutamate/malate at 5XCmax,[4]; [10],0
same,State 4 respiration driven by succinate at 5XCmax,[4]; [10],0
same,Glutamate/malate driven respiration State 3,[4]; 10-fold Cmax,0.94 ± 0.04
same,Glutamate/malate driven respiration State 4,[4]; 10-fold Cmax,1.35 ± 0.19
same,Succinate-driven respiration State 3,[4]; 10-fold Cmax,0.97 ± 0.07
same,Succinate-driven respiration State 4,[4]; 10-fold Cmax,1.38 ± 0.13
same,State 3 respiration driven by glutamate/malate at 10XCmax,[4]; [11],0
same,State 3 respiration driven by succinate at 10XCmax,[4]; [11],0
same,State 4 respiration driven by glutamate/malate at 10XCmax,[4]; [11],1.35±0.19
same,State 4 respiration driven by succinate at 10XCmax,[4]; [11],1.38±0.13
same,Glutamate/malate driven respiration State 3,[4]; 20-fold Cmax,0.90 ± 0.05
same,Glutamate/malate driven respiration State 4,[4]; 20-fold Cmax,1.59 ± 0.05
same,Succinate-driven respiration State 3,[4]; 20-fold Cmax,0.65 ± 0.01
same,Succinate-driven respiration State 4,[4]; 20-fold Cmax,1.31 ± 0.02
same,State 3 respiration driven by glutamate/malate at 20XCmax,[4]; [12],0
same,State 3 respiration driven by succinate at 20XCmax,[4]; [12],0.65±0.01
same,State 4 respiration driven by glutamate/malate at 20XCmax,[4]; [12],1.59±0.05
same,State 4 respiration driven by succinate at 20XCmax,[4]; [12],1.31±0.02
same,Glutamate/malate driven respiration State 3,[4]; 30-fold Cmax,0.71 ± 0.03
same,Glutamate/malate driven respiration State 4,[4]; 30-fold Cmax,2.22 ± 0.24
same,Succinate-driven respiration State 3,[4]; 30-fold Cmax,0.59 ± 0.07
same,Succinate-driven respiration State 4,[4]; 30-fold Cmax,1.52 ± 0.12
same,State 3 respiration driven by glutamate/malate at 30XCmax,[4]; [13],0.71±0.03
same,State 3 respiration driven by succinate at 30XCmax,[4]; [13],0.59±0.07
same,State 4 respiration driven by glutamate/malate at 30XCmax,[4]; [13],2.22±0.24
same,State 4 respiration driven by succinate at 30XCmax,[4]; [13],1.52±0.12
same,Glutamate/malate driven respiration State 3,[4]; 50-fold Cmax,0.56 ± 0.05
same,Glutamate/malate driven respiration State 4,[4]; 50-fold Cmax,2.42 ± 0.21
same,Succinate-driven respiration State 3,[4]; 50-fold Cmax,0.44 ± 0.10
same,Succinate-driven respiration State 4,[4]; 50-fold Cmax,1.69 ± 0.30
same,State 3 respiration driven by glutamate/malate at 50XCmax,[4]; [14],0.56±0.05
same,State 3 respiration driven by succinate at 50XCmax,[4]; [14],0.44±0.10
same,State 4 respiration driven by glutamate/malate at 50XCmax,[4]; [14],2.42±0.21
same,State 4 respiration driven by succinate at 50XCmax,[4]; [14],1.69±0.30
same,Glutamate/malate driven respiration State 3,[4]; 100-fold Cmax,0.41 ± 0.05
same,Glutamate/malate driven respiration State 4,[4]; 100-fold Cmax,2.49 ± 0.32
same,Succinate-driven respiration State 3,[4]; 100-fold Cmax,0.28 ± 0.01
same,Succinate-driven respiration State 4,[4]; 100-fold Cmax,1.03 ± 0.09
same,State 3 respiration driven by glutamate/malate at 100XCmax,[4]; [15],0.41±0.05
same,State 3 respiration driven by succinate at 100XCmax,[4]; [15],0.28±0.01
same,State 4 respiration driven by glutamate/malate at 100XCmax,[4]; [15],2.49±0.32
same,State 4 respiration driven by succinate at 100XCmax,[4]; [15],0
same,effect on state 4 respiration,[4]; highest tested concentrations,significant increases
same,lowest concentration significantly affecting mitochondrial oxygen consumption,[4]; tested at 1 to 100-fold Cmax,tenfold
same,lowest concentration causing mitochondrial swelling,[5],tenfold
same,Swelling 1XCmax,[5]; [16],0
same,Swelling 2.5XCmax,[5]; [17],0
same,Swelling 5XCmax,[5]; [18],0
same,Swelling 10XCmax,[5]; [19],0.20±0.02
same,Swelling 20XCmax,[5]; [20],0.48±0.05
same,Swelling 30XCmax,[5]; [21],0.46±0.05
same,Swelling 50XCmax,[5]; [22],0.44±0.04
same,Swelling 100XCmax,[5]; [23],0.39±0.04
same,effect on mitochondrial swelling,"[5]; up to 100-fold Cmax or highest testable concentration, 25 µM calcium chloride",significant mitochondrial swelling
same,RCC IV at 50XCmax,RCC IV,0
same,lowest concentration decreasing MMP,[6],20 fold Cmax
same,MMP measured by Rhodamine 123 at 1XCmax,[6]; [16],0
same,MMP measured by Rhodamine 123 at 2.5XCmax,[6]; [17],0
same,MMP measured by Rhodamine 123 at 5XCmax,[6]; [18],0
same,MMP measured by Rhodamine 123 at 10XCmax,[6]; [19],0
same,MMP measured by Rhodamine 123 at 20XCmax,[6]; [20],660±95*
same,MMP measured by Rhodamine 123 at 30XCmax,[6]; [21],773±60*
same,MMP measured by Rhodamine 123 at 50XCmax,[6]; [22],953±54*
same,MMP measured by Rhodamine 123 at 100XCmax,[6]; [23],926±89*
same,effect on MMP,[6]; up to 100-fold Cmax or highest testable concentration,decrease in MMP
same,DILI potential (based on labeling),"[7]; 1 DILI positive, 0 negative according to labeling, ref product labeling",0
same,DILI potential (based on labeling),[7]; ref FDA product labeling,0
